The test relates to Caco-2 cell monolayers. Description: Transepithelial electrical resistance (TEER) of Caco-2 cell monolayers. In kind it is cell-based, Human. The protocol:
Caco-2 cells (passage 45) were cultured in 175-cm^2 culture flask (Thermo Fisher Scientific™, Waltham, MA, USA). The culture medium consisted of DMEM containing 10% FBS, 0.1 mM MEM–NEAA, 2 mM glutamine, 100 U/mL penicillin, and 100 µg/mL streptomycin [30]. Cells were cultured in a humidified atmosphere of 5% CO2 at 37 °C. The culture medium was changed every two days. When the cultured Caco-2 cells became sub-confluent, they were seeded onto 12-mm Transwell® with 0.4-µm pore polycarbonate membrane inserts (Corning Inc., New York, NY, USA) at a density of 1 × 10^5 cells/insert. The transepithelial transport studies were performed when the transepithelial electrical resistance (TEER) values were more than 500 Ω·cm^2 (i.e., after 21 days). Briefly, after removing the incubation medium by aspiration, the apical and basal sides were washed thrice by Hank’s Balanced Salt (HBSS) solution (pH 7.4). The cells were incubated in HBSS (pH 6.0) for the apical side and HBSS (pH 7.4) for the basal side for 20 min at 37 °C. HBSS supplemented with 1 mg/mL glucose was used in all cell culture experiments. After removing the washing solution by aspiration, 500 µL of 10 µM CF in a HBSS (pH 6.0) solution with or without various concentrations (0.001% v/v, 0.01% v/v, 0.025% v/v, 0.05% v/v, and 0.1% v/v) of SLG-30, 0.1% (w/v) and 1% (w/v) NaGC or 0.05% (w/v) sodium laurate were added to the apical side at zero time, whereas precisely 1500 µL of HBSS (pH 7.4) was added to the basal side at 37 °C. The cells were kept at 37 °C and 5% CO2 and were continuously agitated on a shaker during the transport experiments.
The TEER values were measured by Millicell® (ERS-2 Volt-Ohm Meter, Billerica, MA, USA) at the predetermined times up to 24 h, and the initial values were considered as 100%. The samples from the basal side were withdrawn at predetermined time points up to 24 h. The samples were replaced with an equal volume of HBSS (pH 7.4). CF was determined as previously mentioned. The apparent permeability coefficients Papp (cm/s) for the transported CF was determined by the following equation: Papp=dXR/dt×1/A×1/C0 where Papp is the apparent permeability coefficient in centimeters per second, XR is the amount of CF in moles in the receptor side, dXR/dt is the flux across the monolayer, A is the diffusion area (i.e., in square centimeters), and C0 is the initial concentration of CF in the donor side in moles per milliliter.

Turning to `CCCCCCCCCCCC(=O)NC(CCC(=O)NCCCCC(NC(=O)CCC(NC(=O)CCCCCCCCCCC)C(=O)O)C(=O)O)C(=O)O` (stereo not drawn) [SLG-30, sodium dilauramidoglutamide lysine], the TEER values result (SLG-30 at all concentrations 0.001-0.1% (v/v), first hour) is recorded as “significant decrease”. Besides, the TEER recovery entry runs as follows: (higher concentrations of SLG-30, without removing SLG-30, up to 24 h) “did not recover to the baseline”; (lower concentrations of SLG-30, without removing SLG-30, up to 24 h) “started to recover”.

The values are drawn from PMC6523531, “Mechanistic Studies on the Absorption-Enhancing Effects of Gemini Surfactant on the Intestinal Absorption of Poorly Absorbed Hydrophilic Drugs in Rats” (Pharmaceutics, 2019).
